Test results as given in patent US9732094B2, “Arylquinazolines” (Merck Patent GmbH, priority 2013, dated 2017).
Where two headings read alike, the source gives them in different places.

Columns and labels:
DNA-PK = DNA-PK (Homo sapiens (Human), UniProt P78527); test: DNA-PK assay (biochemical), flashplate 33P-ATP kinase assay
Summary of the method: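 Reactions ran in streptavidin-coated flashplates and were halted by 200 mM EDTA, with a further 30 min at room temperature before saline washing.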

[1] = target: DNA-PK phosphorylation at serine 2056 (Homo sapiens (Human), UniProt P78527); test: DNA-PK phosphorylation at serine 2056 (cellular), bleomycin-treated HCT116 cells, ELISA; assay type: cell-based; conditions: read-out: IC50 pDNA-PK
Summary of the method: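 Chemiluminescent ELISA quantified DNA-PK Ser2056 phosphorylation relative to total DNA-PKcs in HCT116 cells. Cells received compounds together with 10 μM bleomycin for 6 h; DMSO served as blank.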

Kv11.1 (hERG) = Kv11.1 (hERG) (Homo sapiens (Human), UniProt Q12809); test: Kv11.1 (hERG) ion channel activity (patch clamp assay), HEK293 cells transfected with hERG gene
Chain of Kv11.1 (hERG) (Q12809 whole entry): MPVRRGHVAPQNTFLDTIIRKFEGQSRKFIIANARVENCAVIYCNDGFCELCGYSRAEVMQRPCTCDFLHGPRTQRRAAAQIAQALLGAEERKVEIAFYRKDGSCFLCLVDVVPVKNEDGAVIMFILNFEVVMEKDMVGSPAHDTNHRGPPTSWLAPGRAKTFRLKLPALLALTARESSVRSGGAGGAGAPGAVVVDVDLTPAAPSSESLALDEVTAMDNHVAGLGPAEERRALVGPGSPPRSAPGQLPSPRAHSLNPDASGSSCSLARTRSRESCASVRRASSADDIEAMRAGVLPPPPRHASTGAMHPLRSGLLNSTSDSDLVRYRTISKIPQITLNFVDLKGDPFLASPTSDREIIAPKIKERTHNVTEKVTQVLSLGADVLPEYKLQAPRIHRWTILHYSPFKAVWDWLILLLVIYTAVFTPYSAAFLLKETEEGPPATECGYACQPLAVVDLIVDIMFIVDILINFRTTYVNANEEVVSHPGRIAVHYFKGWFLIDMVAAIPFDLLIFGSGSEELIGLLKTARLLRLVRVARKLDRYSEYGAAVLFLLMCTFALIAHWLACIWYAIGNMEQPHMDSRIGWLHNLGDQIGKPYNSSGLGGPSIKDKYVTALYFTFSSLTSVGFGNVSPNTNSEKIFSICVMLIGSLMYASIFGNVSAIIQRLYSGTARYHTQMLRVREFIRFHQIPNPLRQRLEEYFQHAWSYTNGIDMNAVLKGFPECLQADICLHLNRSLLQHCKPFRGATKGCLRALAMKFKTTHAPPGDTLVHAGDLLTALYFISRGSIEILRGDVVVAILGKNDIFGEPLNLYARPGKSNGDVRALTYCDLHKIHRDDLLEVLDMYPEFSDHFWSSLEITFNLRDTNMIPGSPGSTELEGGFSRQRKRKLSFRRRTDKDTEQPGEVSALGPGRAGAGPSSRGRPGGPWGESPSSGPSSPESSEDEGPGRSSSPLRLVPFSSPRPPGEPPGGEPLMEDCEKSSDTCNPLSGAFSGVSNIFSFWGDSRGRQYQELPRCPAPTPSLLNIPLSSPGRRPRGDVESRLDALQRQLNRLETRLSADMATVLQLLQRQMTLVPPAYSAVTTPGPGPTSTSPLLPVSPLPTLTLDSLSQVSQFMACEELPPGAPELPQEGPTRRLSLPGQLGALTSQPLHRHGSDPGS

[2] = cellular DNA-PK phosphorylation at serine 2056, HCT116
[3] = Ki [Kv1.11 hERG], hERG patch clamp assay (cells without asterisk)
[4] = cellular, HCT116 cells, 10 μM bleomycin, six hours
[5] = Ki [Kv1.11 hERG], patch clamp, HEK293 transfected with hERG gene
[6] = read-out: Ki [Kv1.11 hERG], hERG patch clamp assay (cells without asterisk)
[7] = read-out: Ki [Kv1.11 hERG], patch clamp, HEK293 transfected with hERG gene

IC50 (DNA-PK; biochemical DNA-PK assay) [nM] | IC50 [1, 2] [nM] | IC50 (DNA-PK; enzymatic, 5 μM ATP) [nM] | IC50 [1, 4] [nM] | SMILES | Ki (Kv11.1 (hERG); [6]) [nM] | further results
7 to 30 | 500 to 5000 | – | – | Cn1c(C(O)c2cc(-c3ncnc4cc(N5CCOCC5)ccc34)c(F)cc2Cl)cccc1=O (stereo not drawn) [Example 382, 6-{[2-Chloro-4-fluoro-5-(7-morpholin-4-yl-quinazolin-4-yl)-phenyl]hydroxy-melhyl}-1-methyl-1H-pyridin-2-one] | – | Ki (Kv11.1 (hERG); [3]): 15000 to 25000 nM
– | – | < 3 | < 500 | OC(c1ccc(F)c(-c2ncnc3cc(N4CCOCC4)ccc23)c1)c1nccnc1Cl (stereo not drawn) [Example 54, (3-Chloro-pyrazin-2-yl)-[4-fluoro-3-(7-morpholin-4-yl-quinazolin-4-yl)phenyl]-methanol] | – | Ki (Kv11.1 (hERG); [5]): 15000 to 25000 nM
– | – | – | – | OCc1csc([C@@H](O)c2cc(-c3ncnc4cc(N5CCOCC5)ccc34)c(F)cc2Cl)n1 [Example 185, (S)-[2-Chloro-4-fluoro-5-(7-morpholin-4-yl-quinazolin-4-yl)-phenyl]-(4-hydroxymethyl-thiazol-2-yl)-methanol] | – | IC50 (DNA-PK; Table 5): < 3 nM; IC50 ([1]; Table 5, HCT116 cells): 500 to 5000 nM; Ki (Kv11.1 (hERG); read-out: Ki [Kv1.11 hERG], Table 5): > 25000 nM
7 to 30 | 500 to 5000 | – | – | Cc1nccnc1C(O)c1cc(-c2ncnc3cc(N4CCOCC4)ccc23)ccc1Cl (stereo not drawn) [Example 426, [2-Chloro-5-(7-morpholin-4-yl-quinazolin-4-yl)-phenyl]-(3-methyl-pyrazin-2-yl)-methanol] | > 25000 | –
< 3 | < 500 | – | – | OC(c1ccc(F)c(-c2ncnc3cc(N4CCOCC4)ccc23)c1)c1nncc2ccoc12 (stereo not drawn) [Example 335, [4-Fluoro-3-(7-morpholin-4-yl-quinazolin-4-yl)-phenyl]furo[2,3-d}-pyridazin-7-yl-methanol] | > 25000 | –
– | – | 3 to 7 | 500 to 5000 | OC(c1ccc(F)c(-c2ncnc3cc(N4CCOCC4)ccc23)c1)c1c(F)cncc1F (stereo not drawn) [Example 1, (3,5-Difluoropyridin-4-yl)-[4-fluoro-3-(7-morpholin-4-ylquinazolin-4-yl)phenyl]methanol] | – | Ki (Kv11.1 (hERG); [5]): 15000 to 25000 nM
– | – | < 3 | < 500 | COc1cnc(Cl)c(C(O)c2ccc(F)c(-c3ncnc4cc(N5CCOCC5)ccc34)c2)c1 (stereo not drawn) [Example 22, (2-Chloro-5-methoxy-pyridin-3-yl)-[4-fluoro-3-(7-morpholin-4-yl-quinazolin-4-yl)phenyl]-methanol] | – | Ki (Kv11.1 (hERG); [7]): < 10000 nM
3 to 7 | < 500 | – | – | CCOc1cccnc1C(O)c1ccc(F)c(-c2ncnc3cc(N4CCOCC4)ccc23)c1 (stereo not drawn) [Example 463, (3-Ethoxy-pyridin-2-yl)-[4-fluoro-3-(7-morpholin-4-yl-quinazolin-4-yl)-phenyl]methanol] | – | Ki (Kv11.1 (hERG); [3]): 15000 to 25000 nM
7 to 30 | 500 to 5000 | – | – | Cn1cnc2c(C(O)c3cc(-c4ncnc5cc(N6CCOCC6)ccc45)ccc3F)ncnc21 (stereo not drawn) [Example 370, [2-Fluoro-5-(7-morpholin-4-yl-quinazolin-4-yl)-phenyl]-(9-methyl-9H-purin-6-yl)-methanol] | > 25000 | –
– | – | 3 to 7 | 5000 to 10000 | COc1cnc(C(O)c2ccc(F)c(-c3ncnc4cc(N5CCOCC5)ccc34)c2)cn1 (stereo not drawn) [Example 52, [4-Fluoro-3-(7-morpholin-4-yl-quinazolin-4-yl)phenyl]-(5-methoxy-pyrazin-2-yl)methanol] | – | Ki (Kv11.1 (hERG); [7]): > 25000 nM
– | – | 3 to 7 | 500 to 5000 | OC(c1ccc(F)c(-c2ncnc3cc(N4CCOCC4)ccc23)c1)c1ncccc1C(F)(F)F (stereo not drawn) [Example 80, [4-Fluoro-3-(7-morpholin-4-yl-quinazolin-4-yl)-phenyl]-(3-trifluoro-methylpyridin-2-yl)-methanol] | – | Ki (Kv11.1 (hERG); [7]): > 25000 nM
7 to 30 | 10000 to 30000 | – | – | OC(c1ccc(F)c(-c2ncnc3cc(N4CCOCC4)ccc23)c1)c1nccn2cnnc12 (stereo not drawn) [Example 351, [4-Fluoro-3-(7-morpholin-4-yl-quinazolin-4-yl)-phenyl]-[1,2,4]-triazolo[4,3-a]-pyrazin-8-ylmethanol] | > 25000 | –
7 to 30 | 500 to 5000 | – | – | Cn1cnc2ncnc(C(O)c3ccc(F)c(-c4ncnc5cc(N6CCOCC6)ccc45)c3)c21 (stereo not drawn) [Example 433, [4-Fluoro-3-(7-morpholin-4-yl-quinazolin-4-yl)-phenyl]-(7-methyl-7H-purin-6-yl)-methanol] | > 25000 | –
– | – | – | – | OCc1csc(C(O)c2cc(-c3ncnc4cc(N5CCOCC5)ncc34)c(F)cc2Cl)n1 (stereo not drawn) [Example 141, [2-chloro-4-fluoro-5-(7-morpholin-4-ylpyrido[4,3-d]pyrimidin-4-yl)phenyl]-(4-hydroxymethylthiazol-2-yl)methanol] | – | IC50 (DNA-PK; Table 5): > 30 nM; IC50 ([1]; Table 5, HCT116 cells): 10000 to 30000 nM; Ki (Kv11.1 (hERG); Ki [Kv1.11 hERG], Table 5): 15000 to 25000 nM
7 to 30 | 500 to 5000 | – | – | OC(c1cc(-c2ncnc3cc(N4CCOCC4)ccc23)ccc1F)c1nccn2ccnc12 (stereo not drawn) [Example 372, [2-Fluoro-5-(7-morpholin-4-yl-quinazolin-4-yl)-phenyl]imidazo-[1,2-a]pyrazin-8-yl-methanol] | > 25000 | –
7 to 30 | 5000 to 10000 | – | – | COc1nccnc1C(C(N)=O)c1cc(-c2ncnc3cc(N4CCOCC4)ccc23)ccc1Cl (stereo not drawn) [Example 304, 2-[2-Chloro-5-(7-morpholin-4-yl-quinazolin-4-yl)-phenyl]-2-(3-methoxy-pyrazin-2-yl)acetamide] | > 25000 | –
– | – | 7 to 30 | 500 to 5000 | COc1nnc(C(O)c2cc(-c3ncnc4cc(N5CCOCC5)ccc34)c(F)cc2Cl)cc1C (stereo not drawn) [Example 110, [2-Chloro-4-fluoro-5-(7-morpholin-4-yl-quinazolin-4-yl)-phenyl]-(6-methoxy-5-methylpyridazin-3-yl)methanol] | – | Ki (Kv11.1 (hERG); [5]): 10000 to 15000 nM
3 to 7 | < 500 | – | – | OC(c1ccc(F)c(-c2ncnc3cc(N4CCOCC4)ccc23)c1)c1nccnc1C(F)(F)F (stereo not drawn) [Example 476, [4-Fluoro-3-(7-morpholin-4-yl-quinazolin-4-yl)-phenyl]-(3-trifluoro-methylpyrazin-2-yl)-methanol] | > 25000 | –
– | – | < 3 | < 500 | Cn1c(C(O)c2ccc(F)c(-c3ncnc4cc(N5CCOCC5)ccc34)c2)cccc1=O (stereo not drawn) [Example 91, 6-{[4-Fluoro-3-(7-morpholin-4-yl-quinazolin-4-yl)-phenyl]hydroxy-methyl}-1-methyl-1H-pyridin-2-one] | – | Ki (Kv11.1 (hERG); [7]): > 25000 nM
7 to 30 | 500 to 5000 | – | – | Cn1cnc2c(C(O)c3cc(-c4ncnc5cc(N6CCOCC6)ccc45)c(F)cc3F)ncnc21 (stereo not drawn) [Example 421, [2.4-Difluoro-5-(7-morpholin-4-yl-quinazolin-4-yl)-phenyl]-(9-methyl-9H-purin-6-yl)-methanol] | > 25000 | –
– | – | < 3 | 500 to 5000 | COc1ccc(C(O)c2cc(-c3ncnc4cc(N5CCOCC5)sc34)c(F)cc2Cl)nn1 (stereo not drawn) [Example 128, (2-Chloro-4-fluoro-5-(6-morpholin-4-ylthieno[3,2-d}-pyrimidin-4-yl)-phenyl]-(6-methoxy-pyridazin-3-yl)-methanol] | – | Ki (Kv11.1 (hERG); [5]): 15000 to 25000 nM
7 to 30 | 5000 to 10000 | – | – | Cc1nccnc1C(C(N)=O)c1cc(-c2ncnc3cc(N4CCOCC4)ccc23)c(F)cc1F (stereo not drawn) [Example 329, 2-[2,4-Difluoro-5-(7-morpholin-4-yl-quinazolin-4-yl)-phenyl]-2-(3-methyl-pyrazin-2-yl)-acetamide] | > 25000 | –
– | – | 7 to 30 | 500 to 5000 | CC(C#N)Oc1ccc(C(O)c2cc(-c3ncnc4cc(N5CCOCC5)ccc34)c(F)cc2Cl)nn1 (single isomer, unassigned) [Example 104, 2-(6-{[2-Chloro-4-fluoro-5-(7-morpholin-4-yl-quinazolin-4-yl)-phenyl]hydroxy-methyl}pyridazin-3-yloxy)propionitrile] | – | Ki (Kv11.1 (hERG); [7]): 15000 to 25000 nM
< 3 | < 500 | – | – | Cc1nccnc1[C@H](O)c1ccc(F)c(-c2ncnc3cc(N4CCOCC4)cnc23)c1 [Example 234, (R)-[4-Fluoro-3-(7-morpholin-4-yl-pyrido[3,2-d}-pyrimidin-4-yl)-phenyl]-(3-methyl-pyrazin-2-yl)-methanol] | > 25000 | –
< 3 | 500 to 5000 | – | – | OC(c1cc(-c2ncnc3cc(N4CCOCC4)ccc23)c(F)cc1F)c1ncnc2ccoc12 (stereo not drawn) [Example 444, [2,4-Difluoro-5-(7-morpholin-4-yl-quinazolin-4-yl)-phenyl]furo[3,2-d}-pyrimidin-4-yl-methanol] | > 25000 | –
– | – | 3 to 7 | 500 to 5000 | N#Cc1ccc(C(O)c2cc(-c3ncnc4cc(N5CCOCC5)ccc34)c(F)cc2Cl)nn1 (stereo not drawn) [Example 118, 6-{[2-Chloro-4-fluoro-5-{7-morpholin-4-yl-quinazolin-4-yl)-phenyl]hydroxy-methyl}pyridazine-3-carbonitrile] | – | Ki (Kv11.1 (hERG); [5]): 15000 to 25000 nM
3 to 7 | 500 to 5000 | – | – | Cc1cncnc1C(C(N)=O)c1cc(-c2ncnc3cc(N4CCOCC4)ccc23)ccc1Cl (stereo not drawn) [Example 378, 2-[2-Chloro-5-(7-morpholin-4-yl-quinazolin-4-yl)-phenyl]-2-(5-methyl-pyrimidin-4-yl)-acetamide] | > 25000 | –
7 to 30 | 500 to 5000 | – | – | OC(c1cc(-c2ncnc3cc(N4CCOCC4)ccc23)ccc1Cl)c1ncnc2ccoc12 (stereo not drawn) [Example 432, [2-Chloro-5-(7-morpholin-4-yl-quinazolin-4-yl)-phenyl]furo[3,2-d}-pyrimidin-4-yl-methanol] | 10000 to 15000 | –
